Read-outs that look alike come from different tables or passages of the source.
Legend:
[1] = target: DCN1 (DCUND1) protein PONY domain (Homo sapiens (Human), UniProt Q96GG9); assay: TR-FRET assay, DCN1 binding with FAM-labeled probe
In short: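 Tb-DCN1 PONY domain (E. coli, biotin/streptavidin-Tb); FAM-labelled non-covalent inhibitor probe; TritonX buffer, 200 mM NaCl; 5 nM DCN1 + 20 nM probe or 0.31 nM DCN1 + 900 nM total probe; 0.1% DMSO; TR-FRET read 1, 5, 24 hrs.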

[2] = test system: Cullin-3 (CUL3) neddylation; assay: AlphaLISA assay for Cullin-3 (CUL3) neddylation in TF 1 cells; format: cell-based; conditions: 3 hours treatment
Protocol: An AiphaLISA assay was performed to evaluate the ability of the compounds to suppress neddylation, which is downstream from DCN-1 and DCN-2. A stronger inhibition of DCN-1 and DCN-2 is expected to result in a suppression of neddylation as shown by a lower AlphaLISA signal. The AlphaLISA assay for detecting Cullin-3 (CUL3) neddylation was performed according to manufacturer instructions (Revvity, Hopkinton, MA). Briefly, TF 1 cells (ATCC) were plated in Iscove's Modified Dulbecco's Medium (IMIDM) without supplements in 384-well plates. These cells were treated with […] for 3 hours before lysing them with AlphaLISA lysis buffer, 5× (Revvity). To detect the level of CUL3 neddylation, biotinylated anti-NEDD8 antibody, was added followed by AlphaLISA Acceptor beads conjugated with anti-CUL3 antibody. After overnight incubation, Streptavidin-coated Alpha Donor beads were added and incubated for 1 hour. The AlphaLISA signal was then read on a VICTOR Nivo Multimode Microplate Reader (Revvity, Hopkinton, MA). The positive control was 1 μM DI-1548, which is reported to reduce CUL3 neddylation, also referred to as C-1 in Example 41 (Zhou et al. Nature Comm. 2021). The neddylation signal was normalized such that the percent inhibition is 0% for vehicle control and 100% for positive control. The dose-response curves were fitted with the Hill equation to obtain IC50 values (Graphpad Prism).

[3] = 24 hr after treatment with compound, read-out: TR FRET IC50 24 hr
[4] = read-out: TR FRET IC50 1 hr, 1 hr after treatment with compound
[5] = TR FRET IC50 1 hr (nM), 1 hr after treatment with compound

DCN1 (DCUND1) protein PONY domain, sequence (Q96GG9 60-248): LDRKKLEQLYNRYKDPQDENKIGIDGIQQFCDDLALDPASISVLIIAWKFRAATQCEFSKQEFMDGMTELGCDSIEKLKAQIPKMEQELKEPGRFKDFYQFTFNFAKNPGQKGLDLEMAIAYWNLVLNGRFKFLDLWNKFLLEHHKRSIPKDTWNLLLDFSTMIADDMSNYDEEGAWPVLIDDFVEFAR

| Compound | IC50 [1, 3] [nM] | IC50 [1, 4] [nM] | IC50 [2] [nM] | IC50 [1, 5] [nM] | IC50 ([2]; Homo sapiens, TF-1, 3 h) [nM] |
| --- | --- | --- | --- | --- | --- |
| CCN1C(=O)[C@H](NC(=O)c2cccc(C(F)(F)F)c2)[C@H](c2ccc(F)cc2)c2c(C(=O)N3[C@H](C#N)C[C@H]4C[C@H]43)nn([C@@H]3CCOC3)c21 (single isomer, unassigned) [Compound I-704] | ≤ 200 | 1000 to 3000 | 100 to 1000 |  |  |
| CCN1C(=O)[C@H](NC(=O)c2cccc(C(F)(F)F)c2)[C@H](c2ccc(F)cc2)c2c(C(=O)N(CC#N)CC(=O)OC)nn(-c3ccccc3)c21 (stereo in doubt) [Compound I-406] | ≤ 200 |  |  | 200 to 1000 | 100 to 1000 |
| CCN1C(=O)C(NC(=O)c2cccc(C(F)(F)F)c2)[C@@H](C2CC2)c2c(C(=O)N3CC(NC)CC3C#N)nn(C3CCOCC3)c21 (stereo in doubt) [Compound I-420, N-[(4S,5S)-3-[(2S,4R*)-2-cyano-4-(methylamino)pyrrolidine-1-carbonyl]-4-cyclopropyl-7-ethyl-1-(oxan-4-yl)-6-oxo-4H,5H-pyrazolo[3,4-b]pyridin-5-yl]-3-(trifluoromethyl)benzamide] | 1000 to 3000 |  |  | 1000 to 3000 | > 1000 |
| CCN1C(=O)[C@H](NC(=O)c2cccc(C(F)(F)F)c2)[C@H](c2ccc(F)cc2)c2c(C(=O)N(CC#N)CCC(=O)OC)nn(-c3ccccc3)c21 (stereo in doubt) [Compound I-461] | 1000 to 3000 |  |  | 1000 to 3000 | > 1000 |
| C=C(CN1CCC1)C(=O)NCc1nn(-c2ccccc2)c2c1[C@H](C1CC1)[C@H](NC(=O)c1cccc(C(F)(F)F)c1)C(=O)N2CC (stereo in doubt) [Compound I-462] | ≤ 200 | ≤ 200 |  |  | ≤ 100 |
| CCN(CC#N)C(=O)c1nn(-c2ccccc2)c2c1[C@@H](c1ccc(F)cc1)[C@@H](NC(=O)c1cccc(C(F)(F)F)c1)C(=O)N2CC (stereo in doubt) [Compound I-531] | ≤ 200 |  |  | 1000 to 3000 | 100 to 1000 |
| CCN1C(=O)[C@@H](NC(=O)c2cccc(C(F)(F)F)c2)[C@@H](c2ccc(F)cc2)c2c(C(=O)N3CCC[C@H]3C#N)nn(-c3cccc(OCCCN4CC5(COC5)C4)c3)c21 (stereo in doubt) [Compound I-615] | 200 to 1000 |  |  | 1000 to 3000 | > 1000 |
| C=C(CN1CCC1)C(=O)NCc1nn(-c2ccccc2)c2c1[C@@H](C1CC1)[C@@H](NC(=O)c1cccc(C(F)(F)F)c1)C(=O)N2CC (stereo in doubt) [Compound I-636] | 1000 to 3000 |  |  | 1000 to 3000 | > 1000 |
| CCN1C(=O)[C@H](NC(=O)c2cccc(C(F)(F)F)c2)[C@H](c2ccc(F)cc2)c2c(C(=O)N(CC#N)CCO)nn(-c3ccccc3)c21 (stereo in doubt) [Compound I-639] | 1000 to 3000 |  |  | 1000 to 3000 | > 1000 |
| CCN1C(=O)[C@H](NC(=O)c2cccc(C(F)(F)F)c2)[C@H](c2ccc(F)cc2)c2c(C(=O)N(CC#N)C3CC3)nn(-c3ccccc3)c21 (stereo in doubt) [Compound I-674] | 1000 to 3000 |  |  | 1000 to 3000 | > 1000 |
| C=C(CN1CCC(C)(O)C1)C(=O)NCc1nn(-c2ccccc2)c2c1[C@H](c1ccc(F)cc1)[C@H](NC(=O)c1cccc(C(F)(F)F)c1)C(=O)N2CC (stereo partly drawn) [Compound I-25] | ≤ 200 | ≤ 200 |  |  | ≤ 100 |
| C=C(CN1CC2CCC(C1)O2)C(=O)NCc1nn(-c2ccccc2)c2c1[C@H](c1ccc(F)cc1)[C@H](NC(=O)c1cccc(C(F)(F)F)c1)C(=O)N2CC [Compound I-50] | ≤ 200 | ≤ 200 |  |  | ≤ 100 |
| C=C(CN1CC2CC(C1)O2)C(=O)NCc1nn(-c2ccccc2)c2c1[C@H](c1ccc(F)cc1)[C@H](NC(=O)c1cccc(C(F)(F)F)c1)C(=O)N2CC [Compound I-56] | ≤ 200 | ≤ 200 |  |  | ≤ 100 |
| CCN1C(=O)[C@H](NC(=O)c2cccc(C(F)(F)F)c2)[C@H](c2ccc(F)cc2)c2c(C(=O)N[C@@H](C)C#N)nn(-c3ccccc3)c21 [Compound I-255, (4R,5R)—N—((S)-1-cyanoethyl)-7-ethyl-4-(4-fluorophenyl)-6-oxo-1-phenyl-5-(3-(trifluoromethyl)benzamido)-4,5,6,7-tetrahydro-1H-pyrazolo[3,4-b]pyridine-3-carboxamide] | 1000 to 3000 |  |  | 1000 to 3000 | > 1000 |
| CCN1C(=O)[C@@H](NC(=O)c2cccc(C(F)(F)F)c2)[C@@H](c2ccc(F)cc2)c2c(CNC/C=C/C(=O)N3CCCC3)nn(-c3ccccc3)c21 [Compound I-400] | ≤ 200 | ≤ 200 |  |  | 100 to 1000 |
| CCN1C(=O)[C@H](NC(=O)c2cccc(C(F)(F)F)c2)[C@H](c2ccc(F)cc2)c2c(C(=O)N3CCC[C@H]3C#N)nn(C3CCOCC3)c21 [Compound I-401] | 1000 to 3000 |  |  | 1000 to 3000 | > 1000 |
| CCN1C(=O)[C@@H](NC(=O)c2nccc(C(F)(F)F)n2)[C@H](c2ccc(F)cc2)c2c(CN(C)C(=O)CC#N)nn(-c3ccccc3)c21 [Compound I-402, N-((4R,5S)-3-((2-cyano-N-methylacetamido)methyl)-7-ethyl-4-(4-fluorophenyl)-6-oxo-1-phenyl-4,5,6,7-tetrahydro-1H-pyrazolo[3,4-b]pyridin-5-yl)-4-(trifluoromethyl)pyrimidine-2-carboxamide] | 1000 to 3000 |  |  | 1000 to 3000 | 100 to 1000 |
| CCN1C(=O)[C@@H](NC(=O)c2cccc(C(F)(F)F)c2)[C@H](c2ccc(F)cc2)c2c(CN(C)C(=O)CC#N)nn(-c3ccccc3)c21 [Compound I-403] | 200 to 1000 |  |  | 200 to 1000 | 100 to 1000 |
| CCN1C(=O)[C@H](NC(=O)c2cccc(C(F)(F)F)c2)[C@H](C2CC2)c2c(C(=O)N(CC#N)C3CC3)nn(C3CCOCC3)c21 [Compound I-405] | 1000 to 3000 |  |  | 1000 to 3000 | > 1000 |
| CCN1C(=O)[C@@H](NC(=O)c2nccc(C(F)(F)F)n2)[C@@H](c2ccc(F)cc2)c2c(CNC(=O)/C=C/C(=O)OC(C)(C)C)nn(-c3ccccc3)c21 [Compound I-408] | ≤ 200 | ≤ 200 |  |  | 100 to 1000 |
| CCN1C(=O)[C@H](NC(=O)c2cccc(C(F)(F)F)c2)[C@H](c2ccc(F)cc2)c2c([C@H](C)NC#N)nn(-c3ccccc3)c21 [Compound I-410] | 200 to 1000 |  |  | 1000 to 3000 | 100 to 1000 |
| CCN1C(=O)[C@@H](NC(=O)c2cccc(C(F)(F)F)c2)[C@@H](c2ccc(F)cc2)c2c([C@@H](C)NC#N)nn(C3CCOCC3)c21 [Compound I-412] | ≤ 200 | ≤ 200 |  |  | 100 to 1000 |
| CCN1C(=O)[C@H](NC(=O)c2cccc(C(F)(F)F)c2)[C@H](c2ccc(F)cc2)c2c(C(=O)N(CC#N)C3CC3)nn(C3CCOCC3)c21 [Compound I-414] | 1000 to 3000 |  |  | 1000 to 3000 | > 1000 |
| CCN1C(=O)[C@@H](NC(=O)c2cccc(C(F)(F)F)c2)[C@@H](c2ccc(F)cc2)c2c(C(=O)N3[C@H](C)CC[C@H]3C#N)nn(C3CCOCC3)c21 [Compound I-416] | 200 to 1000 |  |  | 1000 to 3000 | 100 to 1000 |
| CCN1C(=O)[C@@H](NC(=O)c2cccc(C(F)(F)F)c2)[C@@H](c2ccc(F)cc2)c2c(CN(C)CC#N)nn(-c3ccccc3)c21 [Compound I-417] | 200 to 1000 |  |  | 1000 to 3000 | 100 to 1000 |

From patent US20250163057A1, “DCN-1 MODULATING COMPOUNDS AND METHODS OF USE THEREOF” (Cellarity, Inc., priority 2023, published 2025)
